Like-named read-outs stand apart in the source and are kept apart here.
Experiments:
[1] = target: T1, OX1 (Homo sapiens, UniProt O43613); assay: Orexin receptor cell-based functional assay, [Ca2+]i by FLIPR, CHO-OX1 cells
T1 construct: expressed in transfected cells; host or cells: CHO (CHO-OX1, kept under selection antibiotic)
T1 sequence (O43613 1-425): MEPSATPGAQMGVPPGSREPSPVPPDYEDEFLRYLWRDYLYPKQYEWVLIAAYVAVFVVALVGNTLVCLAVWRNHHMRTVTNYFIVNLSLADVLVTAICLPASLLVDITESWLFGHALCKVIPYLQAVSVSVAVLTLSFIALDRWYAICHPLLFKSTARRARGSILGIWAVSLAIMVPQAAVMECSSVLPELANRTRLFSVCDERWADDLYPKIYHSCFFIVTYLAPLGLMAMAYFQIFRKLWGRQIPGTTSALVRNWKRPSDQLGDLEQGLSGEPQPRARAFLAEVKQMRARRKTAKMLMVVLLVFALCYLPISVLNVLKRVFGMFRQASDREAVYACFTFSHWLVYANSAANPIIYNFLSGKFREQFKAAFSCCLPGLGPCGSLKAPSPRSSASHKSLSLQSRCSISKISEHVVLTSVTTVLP
Outline: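 CHO cells expressing human OX1 or OX2 loaded with calcium dye plus 2.5 mM probenecid at 37° C (calcium4, 30 min, or calcium6, 2 h), then exposed to compounds (0.1 nM-10 μM) for 30 min. Intracellular Ca2+ measured on FLIPR; antagonist format.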

[2] = target: T2, OX2 (Homo sapiens, UniProt O43614); assay: Orexin receptor cell-based functional assay, [Ca2+]i by FLIPR, CHO-OX2 cells
T2 construct: expressed in transfected cells; host or cells: CHO (CHO-OX2, kept under selection antibiotic)
T2 sequence (O43614 1-444): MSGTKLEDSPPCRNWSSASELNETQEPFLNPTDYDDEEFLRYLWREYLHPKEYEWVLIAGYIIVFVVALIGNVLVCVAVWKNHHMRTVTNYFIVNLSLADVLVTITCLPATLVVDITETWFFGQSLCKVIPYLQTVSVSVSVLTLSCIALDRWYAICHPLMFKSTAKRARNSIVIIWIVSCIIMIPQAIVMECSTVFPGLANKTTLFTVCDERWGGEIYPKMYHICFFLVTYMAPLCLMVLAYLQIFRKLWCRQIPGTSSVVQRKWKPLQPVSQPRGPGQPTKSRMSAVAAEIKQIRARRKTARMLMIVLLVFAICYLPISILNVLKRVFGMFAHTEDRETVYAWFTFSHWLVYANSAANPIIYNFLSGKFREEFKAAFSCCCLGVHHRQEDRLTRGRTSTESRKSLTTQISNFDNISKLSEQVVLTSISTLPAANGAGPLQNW
Experimental: Measurement of [Ca^2+]i using a FLIPR: CHO—OX1 or CHO—OX2 cells are seeded into black-walled clear-base 384-well plates (Costar) at a density of 20,000 cells per well in F12-K medium supplemented with 10% FBS and selection antibiotic (500 ug/ml G418 or 15 ug/ml Blasticidin) and cultured overnight. The cells are incubated with equal volume of calcium4 loading buffer (Molecular Devices, Inc.) containing 2.5 mM probenecid at 37° C. for 30 min, followed by putative OX1 or OX2 receptor antagonists (dose-range 0.1 nM-10 μM) for another 30 min.
The cells are incubated with equal volume of calcium6 loading buffer (Molecular Devices, Inc.) containing 2.5 mM probenecid at 37° C. for 2 h, followed by test compounds (dose-range 0.1 nM-10 μM) for another 30 min.

[3] = target: T3, CYP3A4 (Homo sapiens, UniProt P08684); assay: Cytochrome P450 inhibition assay (midazolam hydroxylation); type: in vitro ADME; conditions: human, human liver microsomes, probe midazolam (hydroxylation to 1′-hydroxymidazolam), 10 μM test compound, midazolam at approximately its Km
T3 construct: pre-incubated with human liver microsomes and NADPH; from tissue; host or cells: human liver microsomes
T3 sequence (P08684 whole entry): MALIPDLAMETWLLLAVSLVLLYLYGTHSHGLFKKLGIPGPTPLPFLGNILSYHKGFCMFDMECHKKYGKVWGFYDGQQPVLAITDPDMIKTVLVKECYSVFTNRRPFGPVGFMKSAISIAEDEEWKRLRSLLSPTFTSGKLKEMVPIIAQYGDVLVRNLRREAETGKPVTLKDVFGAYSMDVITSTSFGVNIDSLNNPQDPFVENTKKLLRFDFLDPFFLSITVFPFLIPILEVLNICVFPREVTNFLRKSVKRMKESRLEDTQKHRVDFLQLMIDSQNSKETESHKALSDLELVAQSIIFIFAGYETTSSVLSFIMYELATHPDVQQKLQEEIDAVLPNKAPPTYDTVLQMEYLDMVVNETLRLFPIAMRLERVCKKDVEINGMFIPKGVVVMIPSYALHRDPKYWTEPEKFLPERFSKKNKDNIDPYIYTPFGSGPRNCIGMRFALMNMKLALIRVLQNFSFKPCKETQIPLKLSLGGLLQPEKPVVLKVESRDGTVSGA
Outline: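 Human liver microsomes; CYP3A4 activity as midazolam 1′-hydroxylation with substrate near Km, with or without 10 μM test compound, read as percent inhibition. For time-dependent inhibition, parallel samples were preincubated 30 min with NADPH before substrate, and percent inhibition compared with non-preincubated samples.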

[4] = CHO-OX1 cells, [Ca2+]i by FLIPR, antagonist dose-range 0.1 nM-10 μM, EC90 of OXA, read-out: OX1
[5] = [Ca2+]i by FLIPR, antagonist dose-range 0.1 nM-10 μM, EC90 of OXA, read-out: OX2

## Cc1c(F)ccc(-n2nccn2)c1C(=O)N1CCC[C@@H](C)[C@H]1CNc1ncc(C(F)(F)F)cn1 [Example A385, (3-fluoro-2-methyl-6-(2H-1,2,3-triazol-2-yl)phenyl)((2S,3R)-3-methyl-2-(((5-(trifluoromethyl)pyrimidin-2-yl)amino)methyl)piperidin-1-yl)methanone]
[1]; [4]
  IC50: 24 nM
[2]; [5]
  IC50: > 5000 nM

## Cc1ccc(-n2nccn2)c(C(=O)N2CC3CCCC3C2CNc2nc3cc(Cl)ccc3o2)c1 (stereo not shown) [Example A68, (1-(((5-Chlorobenzo[d]oxazol-2-yl)amino)methyl)hexahydrocyclopenta[c]pyrrol-2(1H)-yl)(5-methyl-2-(2H-1,2,3-triazol-2-yl)phenyl)methanone]
[1]; [4]
  IC50: 250 nM
[2]; [5]
  IC50: 3360 nM

## Cc1cccc(-n2nccn2)c1C(=O)N1CCC[C@@H](C)[C@H]1CNc1ccc(C(F)(F)F)cn1 [Example A265, ((2S,3R)-3-Methyl-2-(((5-(trifluoromethyl)pyridin-2-yl)amino)methyl)piperidin-1-yl)(2-methyl-6-(2H-1,2,3-triazol-2-yl)phenyl)methanone]
[1]; [4]
  IC50: 8 nM
[2]; [5]
  IC50: > 5000 nM

## Cc1cc(-n2nccn2)c(C(=O)N2CCC[C@@H](C)[C@H]2CNc2ncc(C(F)(F)F)cn2)cc1F [Example A361, (5-fluoro-4-methyl-2-(2H-1,2,3-triazol-2-yl)phenyl)((2S,3R)-3-methyl-2-(((5-(trifluoromethyl)pyrimidin-2-yl)amino)methyl)piperidin-1-yl)methanone]
[1]; [4]
  IC50: 4 nM
[2]; [5]
  IC50: > 5000 nM

## Cc1ccc(C(=O)N2CCC[C@@H](C)[C@H]2CNc2ncc(C(F)(F)F)cn2)c(-c2ncccn2)c1 [Example A340, ((2S,3R)-3-Methyl-2-(((5-(trifluoromethyl)pyrimidin-2-yl)amino)methyl)piperidin-1-yl)(4-methyl-2-(pyrimidin-2-yl)phenyl)methanone]
[1]; [4]
  IC50: 2 nM
[2]; [5]
  IC50: > 5000 nM

## Cc1ccc(F)c(C(=O)N2CCC[C@@H](C)[C@H]2CNc2ccc(C(F)(F)F)cn2)c1-n1nccn1 [Example A352, (6-Fluoro-3-methyl-2-(2H-1,2,3-triazol-2-yl)phenyl)((2S,3R)-3-methyl-2-(((5-(trifluoromethyl)pyridin-2-yl)amino)methyl)piperidin-1-yl)methanone]
[1]; [4]
  IC50: 4 nM
[2]; [5]
  IC50: 1500 nM

## C[C@@H]1CCCN(C(=O)c2cc(F)cc(F)c2-n2nccn2)[C@@H]1CNc1ccc(C(F)(F)F)cn1 [Example A328, (3,5-Difluoro-2-(2H-1,2,3-triazol-2-yl)phenyl)((2S,3R)-3-methyl-2-(((5-(trifluoromethyl)pyridin-2-yl)amino)methyl)piperidin-1-yl)methanone]
[2]; [5]
  IC50: > 5000 nM

## Cc1ccc(F)c(C(=O)N2CCC[C@@H](C)[C@H]2CNc2ncc(C(F)(F)F)cn2)c1-n1nccn1 [Example A353, (6-fluoro-3-methyl-2-(2H-1,2,3-triazol-2-yl)phenyl)((2S,3R)-3-methyl-2-(((5-(trifluoromethyl)pyrimidin-2-yl)amino)methyl)piperidin-1-yl)methanone]
[1]; [4]
  IC50: 4 nM
[2]; [5]
  IC50: > 5000 nM

## Cc1ccc(-n2cccn2)c(C(=O)N2CCC[C@@H](C)[C@H]2CNc2ccc(C(F)(F)F)cn2)c1 (racemic) [Example 120, rac-cis-(3-Methyl-2-(((5-(trifluoromethyl)pyridin-2-yl)amino)methyl)piperidin-1-yl)(5-methyl-2-(1H-pyrazol-1-yl)phenyl)methanone]
[1]; Table 2, CHO-OX1 cells, EC90 of OXA, read-out: IC50 Bioactivity OX1
  IC50: 3 nM
[2]; Table 2, EC90 of OXA, read-out: IC50 Bioactivity OX2
  IC50: 500 nM

## Cc1cccc(-n2nccn2)c1C(=O)N1CCC[C@@H](C)[C@H]1CNc1ncc(C(F)(F)F)cn1 [Example A264, ((2S,3R)-3-Methyl-2-(((5-(trifluoromethyl)pyrimidin-2-yl)amino)methyl)piperidin-1-yl)(2-methyl-6-(2H-1,2,3-triazol-2-yl)phenyl)methanone]
[1]; [4]
  IC50: 23 nM
[2]; [5]
  IC50: > 5000 nM

## Cc1c(F)ccc(-c2ncccn2)c1C(=O)N1CCC[C@@H](C)[C@H]1CNc1ncc(C(F)(F)F)cn1 [Example A387, (3-fluoro-2-methyl-6-(pyrimidin-2-yl)phenyl)((2S,3R)-3-methyl-2-(((5-(trifluoromethyl)pyrimidin-2-yl)amino)methyl)piperidin-1-yl)methanone]
[1]; [4]
  IC50: 30 nM
[2]; [5]
  IC50: > 5000 nM

## Cc1ccc(-c2ncccn2)c(C(=O)N2CCC[C@@H](C)[C@H]2CNc2ncc(C(F)(F)F)cn2)c1F [Example A321]
[1]; [4]
  IC50: 8 nM
[2]; [5]
  IC50: > 5000 nM

## Cc1cc(-n2nccn2)c(C(=O)N2CCC[C@@H](C)[C@H]2CNc2ccc(C(F)(F)F)cn2)cc1F [Example A360, (5-Fluoro-4-methyl-2-(2H-1,2,3-triazol-2-yl)phenyl)((2S,3R)-3-methyl-2-(((5-(trifluoromethyl)pyridin-2-yl)amino)methyl)piperidin-1-yl)methanone]
[2]; [5]
  IC50: > 5000 nM

## Cc1ccc(-n2ccc(C)n2)c(C(=O)N2CCC[C@@H](C)[C@H]2CNc2ccc(C(F)(F)F)nn2)c1 [Example A130, ((2S,3R)-3-Methyl-2-(((6-(trifluoromethyl)pyridazin-3-yl)amino)methyl)piperidin-1-yl)(5-methyl-2-(3-methyl-1H-pyrazol-1-yl)phenyl)methanone]
[1]; [4]
  IC50: 21 nM
[3]
  inhibition at 10 µM: 86%

## Cc1ccc(-c2cnccn2)c(C(=O)N2CCC[C@@H](C)[C@H]2CNc2ccc(C(F)(F)F)cn2)c1 [Example A19, ((2S,3R)-3-Methyl-2-(((5-(trifluoromethyl)pyridin-2-yl)amino)methyl)piperidin-1-yl)(5-methyl-2-(pyrazin-2-yl)phenyl)methanone]
[1]; [4]
  IC50: 4 nM
[3]
  inhibition at 10 µM: 96%

## Cc1ccc(-c2cnn(C)c2)c(C(=O)N2CCC[C@@H](C)[C@H]2CNc2cccc(C)n2)c1 [Example A87, ((2S,3R)-3-Methyl-2-(((6-methylpyridin-2-yl)amino)methyl)piperidin-1-yl)(5-methyl-2-(1-methyl-1H-pyrazol-4-yl)phenyl)methanone]
[1]; [4]
  IC50: 220 nM
[3]
  inhibition at 10 µM: 73%

## Cc1ccc(-c2cnn(C)c2)c(C(=O)N2CCC[C@@H](C)[C@H]2CNc2ncccc2C#N)c1 [Example A95, 2-((((2S,3R)-3-Methyl-1-(5-methyl-2-(1-methyl-1H-pyrazol-4-yl)benzoyl)piperidin-2-yl)methyl)amino)nicotinonitrile]
[1]; [4]
  IC50: > 1000 nM
[3]
  inhibition at 10 µM: 88%

## C[C@@H]1CCCN(C(=O)c2cc(C#N)ccc2-c2ncccn2)[C@@H]1CNc1ncc(C(F)(F)F)cn1 [Example A323, 3-((2S,3R)-3-Methyl-2-(((5-(trifluoromethyl)pyrimidin-2-yl)amino)methyl)piperidine-1-carbonyl)-4-(pyrimidin-2-yl)benzonitrile]
[1]; [4]
  IC50: 10 nM
[3]
  inhibition at 10 µM: 39%

## Cc1nc(C(=O)N2CCC[C@@H](C)[C@H]2CNc2ccc(C(F)(F)F)cn2)c(-c2ccc(F)cc2)s1 [Example A85, (5-(4-Fluorophenyl)-2-methylthiazol-4-yl)((2S,3R)-3-methyl-2-(((5-(trifluoromethyl)pyridin-2-yl)amino)methyl)piperidin-1-yl)methanone]
[1]; [4]
  IC50: 2 nM
[1]; Table 6, racemate vs enantiomers, read-out: OX1 IC50
  IC50: 2 nM
[3]
  inhibition at 10 µM: 9%
